# In ChEMBL document CHEMBL1201862, “PubChem BioAssay data set” (2004):
#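 48-hour exposure; five concentrations; linearly interpolated endpoints. GI50 = concentration required for 50% inhibition of growth.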 Active and inactive are the calls of the source. Rule as the data show it: active = GI50 up to about 1.1 µM and inactive = higher.
# What was measured:
# Experiment in all cases: inhibition of tumour cell growth, NCI panel, 48 h
# HCC 2998 = test system: HCC 2998
# LOX IMVI = test system: LOX IMVI
# SK-MEL-2 = test system: SK-MEL-2
# OVCAR-3 = test system: OVCAR-3
# EKVX = test system: EKVX
# SF-295 = test system: SF-295
# MOLT-4 = test system: MOLT-4
# HL-60 = test system: HL-60
# Hs-578T = test system: Hs-578T
# A498 = test system: A498
# K562 = test system: K562
# UACC-257 = test system: UACC-257
# SK-MEL-28 = test system: SK-MEL-28
# HOP-62 = test system: HOP-62
# HCT-116 = test system: HCT-116
# SNB-19 = test system: SNB-19
# CCRF-CEM = test system: CCRF-CEM
# CAKI-1 = test system: CAKI-1
# RPMI-8226 = test system: RPMI-8226
# NCI-H522 = test system: NCI-H522
SMILES,GI50 (HCC 2998),GI50 (LOX IMVI),GI50 (SK-MEL-2),GI50 (OVCAR-3),GI50 (EKVX),GI50 (SF-295),GI50 (MOLT-4),GI50 (HL-60),GI50 (Hs-578T),GI50 (A498),GI50 (K562),GI50 (UACC-257),GI50 (SK-MEL-28),GI50 (HOP-62),GI50 (HCT-116),GI50 (SNB-19),GI50 (CCRF-CEM),GI50 (CAKI-1),GI50 (RPMI-8226),GI50 (NCI-H522)
OC1(c2ccc(Cl)cc2)c2c(c3ccccc3c3ccccc23)C2=NCCN21 (configuration not stated),1.98 µM (inactive),24.1 µM (inactive),18.7 µM (inactive),23.8 µM (inactive),13.6 µM (inactive),11.5 µM (inactive),10.8 µM (inactive),> 100 µM (inactive),4.58 µM (inactive),19.1 µM (inactive),37.3 µM (inactive),20.4 µM (inactive),18.3 µM (inactive),11.3 µM (inactive),10.9 µM (inactive),13.6 µM (inactive),> 100 µM (inactive),19.4 µM (inactive),34.4 µM (inactive),–
Cc1ccccc1/N=N/c1c(O)c(S(=O)(=O)O)cc2cc(S(=O)(=O)O)ccc12,> 100 µM (inactive),–,> 100 µM (inactive),> 100 µM (inactive),> 100 µM (inactive),> 100 µM (inactive),> 100 µM (inactive),> 100 µM (inactive),> 100 µM (inactive),> 100 µM (inactive),> 100 µM (inactive),> 100 µM (inactive),> 100 µM (inactive),> 100 µM (inactive),> 100 µM (inactive),> 100 µM (inactive),> 100 µM (inactive),> 100 µM (inactive),–,> 100 µM (inactive)
Cc1c2c(n(CCc3ccc(Cl)cc3)c1C)NN=C(C#N)S2(=O)=O,> 100 µM (inactive),> 100 µM (inactive),> 100 µM (inactive),> 100 µM (inactive),> 100 µM (inactive),–,69.3 µM (inactive),–,> 100 µM (inactive),–,84.7 µM (inactive),> 100 µM (inactive),> 100 µM (inactive),> 100 µM (inactive),> 100 µM (inactive),> 100 µM (inactive),–,–,> 100 µM (inactive),–
Cn1c2c(c3ccccc31)CCN=C2C1CCCOC1=O (configuration not stated),> 100 µM (inactive),> 100 µM (inactive),> 100 µM (inactive),> 100 µM (inactive),88.3 µM (inactive),–,–,> 100 µM (inactive),32.6 µM (inactive),> 100 µM (inactive),–,> 100 µM (inactive),> 100 µM (inactive),> 100 µM (inactive),> 100 µM (inactive),> 100 µM (inactive),–,> 100 µM (inactive),–,> 100 µM (inactive)
COc1ccc2[nH]c3c(C)c4cc[n+](C)cc4c(C)c3c2c1,1.92 µM (inactive),6.21 µM (inactive),2.87 µM (inactive),2.82 µM (inactive),0.738 µM (active),0.173 µM (active),–,14.9 µM (inactive),0.125 µM (active),–,–,8.41 µM (inactive),1.32 µM (inactive),0.358 µM (active),1.39 µM (inactive),0.16 µM (active),1.14 µM (inactive),–,–,0.548 µM (active)
COc1ccc2c(c1)[n+]([O-])c(C#N)c(N1CCN(c3ccc([N+](=O)[O-])cc3)CC1)[n+]2[O-],> 100 µM (inactive),2.36 µM (inactive),> 57.4 µM (inactive),9.91 µM (inactive),2.74 µM (inactive),3.77 µM (inactive),–,5.42 µM (inactive),2.55 µM (inactive),–,1.45 µM (inactive),4.42 µM (inactive),16.3 µM (inactive),4.24 µM (inactive),3.66 µM (inactive),5.22 µM (inactive),1.92 µM (inactive),6 µM (inactive),–,1.81 µM (inactive)
COc1cc(/N=C(\N)N=C(N)N)c2ncccc2c1,> 100 µM (inactive),> 100 µM (inactive),> 100 µM (inactive),> 100 µM (inactive),> 100 µM (inactive),> 100 µM (inactive),–,–,98.4 µM (inactive),> 100 µM (inactive),–,> 100 µM (inactive),> 100 µM (inactive),> 100 µM (inactive),> 100 µM (inactive),50.4 µM (inactive),–,> 100 µM (inactive),–,72.8 µM (inactive)
CCOC(=O)C(COS(C)(=O)=O)(COS(C)(=O)=O)C(=O)OCC,> 100 µM (inactive),> 100 µM (inactive),–,> 100 µM (inactive),–,> 100 µM (inactive),> 100 µM (inactive),–,> 100 µM (inactive),11.1 µM (inactive),> 100 µM (inactive),> 100 µM (inactive),> 100 µM (inactive),–,> 100 µM (inactive),> 100 µM (inactive),> 100 µM (inactive),–,–,> 100 µM (inactive)
